# Paper PMC11091072, “Targeting bacterial nickel transport with aspergillomarasmine A suppresses virulence-associated Ni-dependent enzymes” (Nature Communications, 2024)
# “And” between values parts separate entries of the source, which are not always exact repeats. Equal entries are not always repeated. Where two headings read alike, the source gives them in different places.
# Legend:
# [1] = system: [NiFe]-hydrogenase (Hyd-3); test: Whole-cell [NiFe] hydrogenase assay (benzyl viologen reduction); format: cell-based, Klebsiella pneumoniae
# From the text: We reasoned that disruption of Ni^2+ uptake and homeostasis should also perturb the activity of other Ni-dependent enzymes. To examine this possibility, we tested the effects of free AMA and Zn-AMA on Ni-dependent hydrogen metabolism in bacteria. […] K. pneumoniae produces a single [NiFe]-hydrogenase (Hyd-3) as part of the H2-evolving formate hydrogenlyase (FHL) complex and is encoded by the hyc operon (Fig S8)[21]. […] To measure [NiFe]-hydrogenase-catalyzed H2 […], benzyl viologen was used as an artificial electron acceptor, as previously described. Although Hyd-3 is involved in the evolution of H2, previous work in E. coli has shown that it is responsible for 90% of the hydrogen-dependent benzyl viologen reduction in crude extracts and whole-cell assays[41]–[44].
# The whole-cell hydrogenase activity in K. pneumoniae was based on a modified method described by Lacasse et al.[41] […] The cell suspension was diluted 1/100 in LB supplemented with 0.8% glucose, 10 mM MgCl2, and 10 mM potassium phosphate, pH 7.2. […] Following an 18-hour incubation, whole-cell [NiFe] hydrogenase activity was monitored by adding benzyl viologen (1 mg/mL) to each well, followed by continuous monitoring of the change in absorbance at 630 nm using a BioTek Synergy H1 microplate reader in an anaerobic glove box.
# [2] = system: K. pneumoniae; format: cell-based, Klebsiella pneumoniae
# [3] = system: K. pneumoniae; format: cell-based, Klebsiella pneumoniae; conditions: 200 μM, 24 h exposure
# [4] = system: K. pneumoniae urease activity (whole cell); test: microbe, parasite or virus in culture; format: cell-based, Klebsiella pneumoniae ATCC 33495; conditions: artificial urine; for K. pneumoniae urease-dependent pH change (pH): 37 °C
# [5] = biological target: T1, urease (Klebsiella pneumoniae subsp. pneumoniae, UniProt A6TE40+A6TE41+A6TE42); test: Urease activity in cell-free extracts (NH3 release, indophenol-hypochlorite); format: biochemical
# T1 construct: endogenous in cells; host or cells: Klebsiella pneumoniae (ATCC 33495), sonicated and cleared lysate
# Experimental: The cells were subsequently lysed by sonication, and cell debris was removed with centrifugation (20,000 × g, 10 min). […] Liberated NH3 was quantified using the indophenol-hypocholorite reaction as previously described. The total amount of protein was quantified by Bradford assay using bovine serum albumin as standard. Each assay was performed in duplicate wells.
# FIG S7 Evaluation of Zn-AMA as a direct inhibitor of urease. A) Checkerboard analysis of Zn-AMA and AHA on urease activity of K. […]
# Dose- […]
# response curves of fluorofamide, Zn-AMA, and AMA inhibiting the urease-catalyzed release of NH3 quantified with indophenol hypochlorite. The rates of NH3 production were measured over 20 min and were normalized to total protein concentration. Experiments were performed in duplicate. Individual replicates are shown as colored circles.
# [6] = system: HEK293 cells; test: HEK293 cytotoxicity assay (Cell Titer Glo 2.0)
# [7] = system: struvite crystallization in K. pneumoniae cultures; test: Struvite crystal nucleation in artificial urine cultures; format: cell-based, Klebsiella pneumoniae
# From the text: A The metal complexed structure, selectivity, and affinity of AMA. The constituents of AMA are labeled L-aspartate (L-Asp) and 2,3-diaminopropionic acid (APA). B Dose-response urease inhibition assays in K. pneumoniae. […] C Dose-response effect of AMA and Zn-AMA on the nucleation of struvite crystals in K. pneumoniae cultures grown in artificial urine. Crystals were examined microscopically in 96-well plates and visually quantified. […] The data represent the representative mean of two replicates. D Quantification of planktonic growth and crystal violet-stained biofilms of K. pneumoniae grown in artificial urine and varying concentrations of Zn-AMA. […] Data represent mean ± s.d. of four technical replicates. E ICP-MS quantification of cellular ^60Ni and ^66Zn content in K. pneumoniae untreated or treated with 200 μM AMA, or Zn-AMA. […] Whole-cell hydrogenase assays were performed by adding benzyl viologen (BV) at a final concentration of 1 mg/mL and monitoring its reduction at an absorbance of 630 nm. Data represent the mean of two technical replicates.
# FIG S5 Microscopic detection of struvite crystals grown in artificial urine cultures of K. pneumoniae. Top row, the concentration-dependent effect of AMA on struvite formation. Bottom row, the concentration-dependent effect of Zn-AMA on struvite formation.
# Bacteria were grown in 96 well flat-bottom plates for 24h at 37 °C. Brightfield micrographs were taken with a BioTek Cytation cell imaging reader at 4x magnification. Four images were taken per well and were digitally stitched to generate whole-well images. […]
# [8] = system: S. aureus; format: cell-based, Staphylococcus aureus; conditions: 200 μM, 24 h
# T1 sequence (A6TE41 whole entry): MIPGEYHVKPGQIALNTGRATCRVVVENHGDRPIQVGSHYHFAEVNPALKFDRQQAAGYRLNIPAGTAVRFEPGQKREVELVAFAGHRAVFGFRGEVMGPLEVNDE
# T1 sequence (A6TE40 whole entry): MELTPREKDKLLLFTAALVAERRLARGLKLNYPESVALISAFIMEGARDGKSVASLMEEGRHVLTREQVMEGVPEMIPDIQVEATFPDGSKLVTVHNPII
# T1 sequence (A6TE42 whole entry): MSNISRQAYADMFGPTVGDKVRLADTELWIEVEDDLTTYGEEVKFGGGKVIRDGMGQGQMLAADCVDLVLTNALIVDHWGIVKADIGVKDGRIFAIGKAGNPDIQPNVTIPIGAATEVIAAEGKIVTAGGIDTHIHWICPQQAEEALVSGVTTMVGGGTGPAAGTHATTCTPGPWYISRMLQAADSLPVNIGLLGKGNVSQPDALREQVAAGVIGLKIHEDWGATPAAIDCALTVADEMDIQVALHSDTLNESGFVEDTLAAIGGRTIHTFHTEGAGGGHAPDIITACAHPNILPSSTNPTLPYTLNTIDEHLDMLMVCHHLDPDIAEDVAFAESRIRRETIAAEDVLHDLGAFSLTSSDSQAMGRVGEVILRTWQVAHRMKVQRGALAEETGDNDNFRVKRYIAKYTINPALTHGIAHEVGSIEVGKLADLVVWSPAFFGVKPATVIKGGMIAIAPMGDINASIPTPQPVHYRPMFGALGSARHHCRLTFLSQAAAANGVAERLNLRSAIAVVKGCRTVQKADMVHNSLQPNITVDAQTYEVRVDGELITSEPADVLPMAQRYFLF
smiles,measurement,setting,value
N[C@@H](CN[C@@H](CN[C@@H](CC(=O)O)C(=O)O)C(=O)O)C(=O)O.[Zn+2] [Zn-AMA],Benzyl viologen hydrogenase assay (activity),[1]; 1.5625 μM,9.43 and 9.72
same,Benzyl viologen hydrogenase assay (activity),[1]; 3.125 μM,9.23 and 9.47
same,Benzyl viologen hydrogenase assay (activity),[1]; 6.25 μM,8.98 and 9.82
same,Benzyl viologen hydrogenase assay (activity),[1]; 12.5 μM,9.03 and 8.64
same,Benzyl viologen hydrogenase assay (activity),[1]; 25 μM,7.51 and 6.87
same,Benzyl viologen hydrogenase assay (activity),[1]; 50 μM,5.01 and 4.71
same,Benzyl viologen hydrogenase assay (activity),[1]; 100 μM,2.11
same,Benzyl viologen hydrogenase assay (activity),[1]; 200 μM,0.69 and 0.39
same,EC50,"[1]; read-out: EC50, Hyd-3 [NiFe]-hydrogenase inhibition, LB-glucose, anaerobic, whole cell, benzyl viologen",50.8 ± 4.4 µM
same,Growth curve (culture density),[2],0.101 and 0.102 and 0.103 and 0.104 and 0.105 and 0.107 and 0.106 and 0.108
same,Growth curve (culture density),"[2]; 15.15 h, 50 μM",0.107 and 0.104
same,Growth curve (culture density),"[2]; 16.15 h, 50 μM",0.107 and 0.103
same,Growth curve (culture density),"[2]; 17.15 h, 50 μM",0.107 and 0.102
same,growth with urea as sole nitrogen source,[2]; Chelex-treated nitrogen-limited medium,did not
same,growth with urea as sole nitrogen source,[2]; medium supplemented with 0.25 μM NiCl,inhibited the growth of K. pneumoniae
same,bacterial viability (spot dilutions),[3],do not affect bacterial viability
same,K. pneumoniae urease-dependent pH change (pH),"[4]; 0.19 μM, 24 h",8.14 and 8.10
same,K. pneumoniae urease-dependent pH change (pH),"[4]; 0.39 μM, 24 h",8.08 and 8.00
same,K. pneumoniae urease-dependent pH change (pH),"[4]; 0.78 μM, 24 h",7.84 and 7.81
same,K. pneumoniae urease-dependent pH change (pH),"[4]; 1.56 μM, 24 h",7.60 and 7.55
same,K. pneumoniae urease-dependent pH change (pH),"[4]; 3.12 μM, 24 h",7.41 and 7.27
same,K. pneumoniae urease-dependent pH change (pH),"[4]; 6.25 μM, 24 h",7.11
same,K. pneumoniae urease-dependent pH change (pH),"[4]; 12.5 μM, 24 h",6.87 and 6.85
same,K. pneumoniae urease-dependent pH change (pH),"[4]; 25 μM, 24 h",6.76 and 6.71
same,K. pneumoniae urease-dependent pH change (pH),"[4]; 50 μM, 24 h",6.66 and 6.60
same,K. pneumoniae urease-dependent pH change (pH),"[4]; 100 μM, 24 h",6.65 and 6.54
same,K. pneumoniae urease-dependent pH change (pH),"[4]; 200 μM, 24 h",6.80 and 6.56
same,concentration that significantly suppressed urease activity,"[4]; K. pneumoniae, 24 h",50 µM
same,EC50,"[4]; Klebsiella pneumoniae, K. pneumoniae, read-out: EC50, half-maximal effective concentration required to suppress urease-dependent pH change",2.5 ± 0.4 µM
same,Specific activity (cell-free indophenol urease assay),[5]; Zn-AMA 0.007813 mM,45.30 nmol/min/mg and 43.25 nmol/min/mg
same,Specific activity (cell-free indophenol urease assay),[5]; Zn-AMA 0.015625 mM,43.59 nmol/min/mg and 42.05 nmol/min/mg
same,Specific activity (cell-free indophenol urease assay),[5]; Zn-AMA 0.03125 mM,42.91 nmol/min/mg and 40.51 nmol/min/mg
same,Specific activity (cell-free indophenol urease assay),[5]; Zn-AMA 0.0625 mM,42.56 nmol/min/mg and 39.66 nmol/min/mg
same,Specific activity (cell-free indophenol urease assay),[5]; Zn-AMA 0.125 mM,42.39 nmol/min/mg and 39.32 nmol/min/mg
same,Specific activity (cell-free indophenol urease assay),[5]; Zn-AMA 0.25 mM,39.32 nmol/min/mg and 37.78 nmol/min/mg
same,Specific activity (cell-free indophenol urease assay),[5]; Zn-AMA 0.5 mM,36.07 nmol/min/mg and 34.19 nmol/min/mg
same,Specific activity (cell-free indophenol urease assay),[5]; Zn-AMA 1 mM,31.28 nmol/min/mg and 28.03 nmol/min/mg
same,direct inhibition of urease,[5]; cell-free extract,excluded the direct inhibition of urease
same,cytotoxicity toward HEK293,"[6]; 48 h, up to 512 μg/mL (~1.4 mM)",no significant cytotoxicity
same,IC50,"[6]; Homo sapiens, HEK293, 48 h, read-out: IC50 (HEK293 viability)",> 512 µg/mL
same,HEK 293T cytotoxicity assay raw signal,[6]; Zn-AMA 0.5 μg/mL,787289 and 688554 and 688484
same,HEK 293T cytotoxicity assay raw signal,[6]; Zn-AMA 1 μg/mL,778862 and 676746 and 680280
same,HEK 293T cytotoxicity assay raw signal,[6]; Zn-AMA 2 μg/mL,730695 and 661495 and 777158
same,HEK 293T cytotoxicity assay raw signal,[6]; Zn-AMA 4 μg/mL,783723 and 676080 and 794996
same,HEK 293T cytotoxicity assay raw signal,[6]; Zn-AMA 8 μg/mL,742661 and 700936 and 674120
same,HEK 293T cytotoxicity assay raw signal,[6]; Zn-AMA 16 μg/mL,815769 and 690170 and 672316
same,HEK 293T cytotoxicity assay raw signal,[6]; Zn-AMA 32 μg/mL,682089 and 773769 and 699603
same,HEK 293T cytotoxicity assay raw signal,[6]; Zn-AMA 64 μg/mL,773018 and 718789 and 808685
same,HEK 293T cytotoxicity assay raw signal,[6]; Zn-AMA 128 μg/mL,636555 and 716494 and 658016
same,HEK 293T cytotoxicity assay raw signal,[6]; Zn-AMA 256 μg/mL,744022 and 626132 and 622056
same,HEK 293T cytotoxicity assay raw signal,[6]; Zn-AMA 512 μg/mL,618617 and 604431 and 563165
same,Struvite crystal quantification (count),[7]; 3.12 μM,25 and 43
same,Struvite crystal quantification (count),[7]; 6.25 μM,42 and 62
same,Struvite crystal quantification (count),[7]; 12 μM,48 and 82
same,Struvite crystal quantification (count),[7]; 50 μM,0
same,Struvite crystal quantification (count),[7]; 100 μM,0
same,Struvite crystal quantification (count),[7]; 200 μM,0
same,effect on struvite crystals,"[7]; K. pneumoniae, artificial urine",robustly prevented the appearance of struvite crystals
same,bacterial viability (spot dilutions),[8],not lethal to bacteria
